# Organism: Rattus norvegicus
# Assay: DrugMatrix - Regimen: Daily Repeat
# Format: toxicity, organism-based, Sprague-Dawley
# Set-up: regimen Daily Repeat, gender Male, age 6-8 weeks
# Conditions: in vivo, po, route oral GAVAGE, […]; for ABSOLUTE BASOPHIL / ABSOLUTE EOSINOPHIL / ABSOLUTE LYMPHOCYTE / ABSOLUTE MONOCYTE / ABSOLUTE SEGMENTED NEUTROPHIL / BASOPHIL / EOSINOPHIL / ERYTHROCYTE COUNT / HEMATOCRIT / HEMOGLOBIN / LEUKOCYTE COUNT / LYMPHOCYTE / MEAN CORPUSCULAR HEMOGLOBIN / MEAN CORPUSCULAR HEMOGLOBIN CONCENTRATION / MEAN CORPUSCULAR VOLUME / MONOCYTE / NEUTROPHIL / NUCLEATED RED BLOOD CELLS / PLATELET COUNT: tissue Blood; for ALANINE AMINOTRANSFERASE / ALBUMIN / ALKALINE PHOSPHATASE / ASPARTATE AMINOTRANSFERASE / BLOOD UREA NITROGEN / CARBON DIOXIDE / CHLORIDE / CHOLESTEROL / CREATININE / GLUCOSE / LACTATE DEHYDROGENASE / LIPASE / PHOSPHORUS / POTASSIUM / SODIUM / TOTAL BILIRUBIN / TOTAL PROTEIN / URIC ACID: tissue Plasma
# [1] = 250 mg/kg, 120 h, dose level Low, time 5 day
# [2] = 500 mg/kg, 72 h, dose level High, time 3 day
# [3] = 500 mg/kg, 120 h, dose level High, time 5 day
smiles,measurement,setting,value
CC(C)Cc1ccc(CC(=O)O)cc1 [IBUFENAC],ABSOLUTE BASOPHIL,[1],0 CELLS/uL
same,ABSOLUTE EOSINOPHIL,[1],236.67 CELLS/uL
same,ABSOLUTE LYMPHOCYTE,[1],15018.67 CELLS/uL
same,ABSOLUTE MONOCYTE,[1],455.33 CELLS/uL
same,ABSOLUTE SEGMENTED NEUTROPHIL,[1],1489.33 CELLS/uL
same,BASOPHIL,[1],0%
same,EOSINOPHIL,[1],1.33%
same,ERYTHROCYTE COUNT,[1],5.48 x10E6/uL
same,HEMATOCRIT,[1],33.63%
same,HEMOGLOBIN,[1],12.33 G/DL
same,LEUKOCYTE COUNT,[1],17.2 x10E3/uL
same,LYMPHOCYTE,[1],87.33%
same,MEAN CORPUSCULAR HEMOGLOBIN,[1],22.5 pg
same,MEAN CORPUSCULAR HEMOGLOBIN CONCENTRATION,[1],36.67 G/DL
same,MEAN CORPUSCULAR VOLUME,[1],61.4 fL
same,MONOCYTE,[1],2.67%
same,NEUTROPHIL,[1],8.67%
same,NUCLEATED RED BLOOD CELLS,[1],0 /100WBC
same,PLATELET COUNT,[1],1124.33 x10E3/uL
same,ALANINE AMINOTRANSFERASE,[1],50 u/L
same,ALBUMIN,[1],4.2 G/DL
same,ALKALINE PHOSPHATASE,[1],391.33 u/L
same,ASPARTATE AMINOTRANSFERASE,[1],81 u/L
same,BLOOD UREA NITROGEN,[1],16 mg/dL
same,CARBON DIOXIDE,[1],28.33 mmol/L
same,CHLORIDE,[1],100.33 MEQ/L
same,CHOLESTEROL,[1],53.33 mg/dL
same,CREATININE,[1],0.16 mg/dL
same,GLUCOSE,[1],167.33 mg/dL
same,LACTATE DEHYDROGENASE,[1],230 u/L
same,LIPASE,[1],9 u/L
same,PHOSPHORUS,[1],12.77 mg/dL
same,POTASSIUM,[1],6.45 MEQ/L
same,SODIUM,[1],142.9 MEQ/L
same,TOTAL BILIRUBIN,[1],0.13 mg/dL
same,TOTAL PROTEIN,[1],6 G/DL
same,URIC ACID,[1],1.5 mg/dL
same,ABSOLUTE BASOPHIL,[2],0 CELLS/uL
same,ABSOLUTE EOSINOPHIL,[2],218.33 CELLS/uL
same,ABSOLUTE LYMPHOCYTE,[2],13655.67 CELLS/uL
same,ABSOLUTE MONOCYTE,[2],429.67 CELLS/uL
same,ABSOLUTE SEGMENTED NEUTROPHIL,[2],2263 CELLS/uL
same,BASOPHIL,[2],0%
same,EOSINOPHIL,[2],1.33%
same,ERYTHROCYTE COUNT,[2],5.57 x10E6/uL
same,HEMATOCRIT,[2],35.13%
same,HEMOGLOBIN,[2],12.77 G/DL
same,LEUKOCYTE COUNT,[2],16.57 x10E3/uL
same,LYMPHOCYTE,[2],82.67%
same,MEAN CORPUSCULAR HEMOGLOBIN,[2],22.97 pg
same,MEAN CORPUSCULAR HEMOGLOBIN CONCENTRATION,[2],36.33 G/DL
same,MEAN CORPUSCULAR VOLUME,[2],63.13 fL
same,MONOCYTE,[2],2.67%
same,NEUTROPHIL,[2],13.33%
same,NUCLEATED RED BLOOD CELLS,[2],0 /100WBC
same,PLATELET COUNT,[2],1113.33 x10E3/uL
same,ALANINE AMINOTRANSFERASE,[2],92.33 u/L
same,ALBUMIN,[2],4.4 G/DL
same,ALKALINE PHOSPHATASE,[2],526.33 u/L
same,ASPARTATE AMINOTRANSFERASE,[2],107.33 u/L
same,BLOOD UREA NITROGEN,[2],14 mg/dL
same,CARBON DIOXIDE,[2],27.33 mmol/L
same,CHLORIDE,[2],103.67 MEQ/L
same,CHOLESTEROL,[2],57 mg/dL
same,CREATININE,[2],0.24 mg/dL
same,GLUCOSE,[2],142.67 mg/dL
same,LACTATE DEHYDROGENASE,[2],159 u/L
same,LIPASE,[2],9.67 u/L
same,PHOSPHORUS,[2],12.2 mg/dL
same,POTASSIUM,[2],7.03 MEQ/L
same,SODIUM,[2],148.07 MEQ/L
same,TOTAL BILIRUBIN,[2],0.2 mg/dL
same,TOTAL PROTEIN,[2],5.93 G/DL
same,URIC ACID,[2],1.43 mg/dL
same,ABSOLUTE BASOPHIL,[3],0 CELLS/uL
same,ABSOLUTE EOSINOPHIL,[3],195.6 CELLS/uL
same,ABSOLUTE LYMPHOCYTE,[3],15442.4 CELLS/uL
same,ABSOLUTE MONOCYTE,[3],503.4 CELLS/uL
same,ABSOLUTE SEGMENTED NEUTROPHIL,[3],1838.6 CELLS/uL
same,BASOPHIL,[3],0%
same,EOSINOPHIL,[3],1%
same,ERYTHROCYTE COUNT,[3],5.64 x10E6/uL
same,HEMATOCRIT,[3],33.38%
same,HEMOGLOBIN,[3],12.04 G/DL
same,LEUKOCYTE COUNT,[3],17.98 x10E3/uL
same,LYMPHOCYTE,[3],86.6%
same,MEAN CORPUSCULAR HEMOGLOBIN,[3],21.36 pg
same,MEAN CORPUSCULAR HEMOGLOBIN CONCENTRATION,[3],36.1 G/DL
same,MEAN CORPUSCULAR VOLUME,[3],59.2 fL
same,MONOCYTE,[3],2.8%
same,NEUTROPHIL,[3],9.6%
same,NUCLEATED RED BLOOD CELLS,[3],0 /100WBC
same,PLATELET COUNT,[3],1278.6 x10E3/uL
same,ALANINE AMINOTRANSFERASE,[3],66 u/L
same,ALBUMIN,[3],4.06 G/DL
same,ALKALINE PHOSPHATASE,[3],384.8 u/L
same,ASPARTATE AMINOTRANSFERASE,[3],92.4 u/L
same,BLOOD UREA NITROGEN,[3],12.8 mg/dL
same,CARBON DIOXIDE,[3],25.8 mmol/L
same,CHLORIDE,[3],102.2 MEQ/L
same,CHOLESTEROL,[3],54.2 mg/dL
same,CREATININE,[3],0.16 mg/dL
same,GLUCOSE,[3],152.8 mg/dL
same,LACTATE DEHYDROGENASE,[3],132.4 u/L
same,LIPASE,[3],9 u/L
same,PHOSPHORUS,[3],12.02 mg/dL
same,POTASSIUM,[3],6.28 MEQ/L
same,SODIUM,[3],142.86 MEQ/L
same,TOTAL BILIRUBIN,[3],0.14 mg/dL
same,TOTAL PROTEIN,[3],5.54 G/DL
same,URIC ACID,[3],1.78 mg/dL
